Measured values: paper PMC7600788, “Sequence Permutation Generates Peptides with Different Antimicrobial and Antibiofilm Activities” (Pharmaceuticals, 2020)
No end group written: not given here.

Experiments:
E. faecium VRE = type: cell-based; conditions: VRE
Method: (§1) The antimicrobial activity spectrum of the WW peptide series was performed on a panel of Gram-positive and -negative bacteria using the standard broth micro-dilution method with minor modifications as described. […] There was a small change in the case of Pseudomonas aeruginosa and Acinetobacter baumannii up to two-fold. Four-fold changes were found for Staphylococcus aureus, Staphylococcus epidermidis, Escherichia coli, and Bacillus subtilis. However, we observed over eight-fold MIC changes for Klebsiella pneumoniae and vancomycin-resistant enterococcus (VRE). […] We also observed more than eight-fold changes in minimal bacterial killing concentrations.
(§2) The antibacterial activity of peptides was evaluated using a standard broth microdilution protocol with minor modifications as previously described. In brief, logarithmic phase bacterial cultures (i.e., optical density at 600 nm ≈ 0.5) were diluted to OD600~0.001 and partitioned into a 96-well polystyrene microplate at 90 μL per well. After treatment with 10 μL of peptide solutions two-fold diluted to various concentrations, microplates were incubated at 37 °C overnight and read on a ChroMate 4300 Microplate Reader at 630 nm (GMI, Ramsey, MN). […] Minimal bactericidal concentration (MBC) was determined by plating the clear wells at MIC or above. The peptide concentration that caused no bacterial growth on the petri dish is MBC.

A. baumannii B28-16 = type: cell-based, Acinetobacter baumannii; conditions: B28-16
Method: as §1, §2

E. coli ATCC 25922 = assay: Propidium iodide membrane permeation assay; type: cell-based, Escherichia coli; conditions: peptide 3.1 µM, read every 5 min for 2 h
Method: Although not general, cationic antimicrobial peptides frequently target bacterial membranes. A fluorescence-based assay was performed for the determination the membrane active nature of peptides. A rapid increase in the fluorescence was detected as a consequence of peptide treatment at 3.1 µM, indicating membrane damage (Figure 3).
The experiment was performed as previously described with minor modifications. Serially diluted 10× peptides (10 μL each well) were created in 96-well microtiter plates. Propidium iodide (2 μL) at a fixed concentration of 20 μM was added to each well followed by 88 μL of the S. aureus USA300 or E. coli ATCC 25922 culture (a final OD600 ~0.1 in PBS). The plate was incubated at 37 °C with continuous shaking at 100 rpm in a FLUOstar Omega (BMG LABTECH Inc, Cary, NC, USA) microplate reader. The fluorescence from the plate was read every 5 min for a total duration of 2 h with excitation and emission wavelengths of 584 and 620 nm, respectively. Data were analyzed using the MARS data analysis software provided by the manufacturer and representative plots were made using the GraphPad Prism software (version: 7.0).

E. coli K12 = type: cell-based, Escherichia coli; conditions: K12
Method: as §1, §2

RKIWWWWL [WW295]
Minimal Inhibitory Concentration (MIC), VRE (E. faecium VRE): 6.25 µM
Minimal Inhibitory Concentration (MIC), AB (A. baumannii B28-16): 6.25 to 12.5 µM
propidium iodide fluorescence buildup (membrane permeation) (E. coli ATCC 25922): steady fluorescence buildup
Minimal Inhibitory Concentration (MIC), EC (E. coli K12): 6.2 µM
